From PMC8311653, “Design, Synthesis, In Vitro and In Vivo Characterization of Selective NKCC1 Inhibitors for the Treatment of Core Symptoms in Down Syndrome” (Journal of Medicinal Chemistry, 2021)
Converted amounts (≈) assume the structure as drawn.

What was measured:
NKCC1 = target: T1, NKCC1 (Mus musculus, UniProt P55012); assay: Ca2+ influx assay in immature primary neuronal cultures (indirect measure of NKCC1 inhibition); assay type: cell-based; conditions: cultured neurons, 3 DIV
T1 construct: primary neuronal cultures of dissociated hippocampal neurons were prepared from E18 C57BL/6J mice; endogenous in cells; host or cells: primary hippocampal neurons from E18 C57BL/6J mice, 3 DIV
T1 sequence (P55012 1-1205): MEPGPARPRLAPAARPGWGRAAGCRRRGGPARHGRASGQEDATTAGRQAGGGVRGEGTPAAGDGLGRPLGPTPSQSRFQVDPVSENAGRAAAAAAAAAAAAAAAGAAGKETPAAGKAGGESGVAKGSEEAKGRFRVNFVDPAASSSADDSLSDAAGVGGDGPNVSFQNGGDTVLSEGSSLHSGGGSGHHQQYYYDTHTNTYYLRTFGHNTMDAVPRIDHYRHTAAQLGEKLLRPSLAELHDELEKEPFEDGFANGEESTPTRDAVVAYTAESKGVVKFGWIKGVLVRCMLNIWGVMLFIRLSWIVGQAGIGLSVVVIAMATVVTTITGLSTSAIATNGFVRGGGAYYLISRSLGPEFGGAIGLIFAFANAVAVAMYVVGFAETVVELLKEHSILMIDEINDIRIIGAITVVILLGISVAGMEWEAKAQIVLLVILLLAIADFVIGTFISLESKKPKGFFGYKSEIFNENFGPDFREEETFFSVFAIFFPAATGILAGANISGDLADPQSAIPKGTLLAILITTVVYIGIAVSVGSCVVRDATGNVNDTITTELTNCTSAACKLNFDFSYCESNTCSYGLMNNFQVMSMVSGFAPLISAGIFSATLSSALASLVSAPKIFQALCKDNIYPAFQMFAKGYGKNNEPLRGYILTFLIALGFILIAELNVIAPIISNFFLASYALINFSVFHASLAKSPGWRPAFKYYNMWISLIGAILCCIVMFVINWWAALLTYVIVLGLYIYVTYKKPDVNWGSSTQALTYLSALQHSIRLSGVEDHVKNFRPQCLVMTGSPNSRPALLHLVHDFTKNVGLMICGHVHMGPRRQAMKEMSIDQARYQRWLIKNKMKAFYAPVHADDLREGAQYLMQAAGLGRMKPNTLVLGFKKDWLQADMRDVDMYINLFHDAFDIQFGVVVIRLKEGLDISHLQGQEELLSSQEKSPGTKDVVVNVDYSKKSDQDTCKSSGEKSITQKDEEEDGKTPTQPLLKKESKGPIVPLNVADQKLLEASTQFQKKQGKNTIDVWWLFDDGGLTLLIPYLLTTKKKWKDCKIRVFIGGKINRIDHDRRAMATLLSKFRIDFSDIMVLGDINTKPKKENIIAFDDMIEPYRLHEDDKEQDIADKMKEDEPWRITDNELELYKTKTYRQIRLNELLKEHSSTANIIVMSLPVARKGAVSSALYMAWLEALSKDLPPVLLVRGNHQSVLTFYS
Protocol: To perform the Ca^2+-influx assay, primary neuronal cultures of dissociated hippocampal neurons were prepared from E18 C57BL/6J mice (Charles River) as previously described[56] and plated in 96-well black-walled, clear-bottomed plates coated with poly-L-lysine (Sigma; 0.1 mg/mL in 100 mM borate buffer, pH 8.5) at a density of 30,000 cells per well. Neurons were maintained in neurobasal medium supplemented with 2% B-27 supplement, 0.5 mM glutamine, 50 U/mL of penicillin, and 50 μg/mL of streptomycin (all from Gibco). The cells were incubated at 37 °C and 5% CO2 until DIV 3 for the Ca^2+ influx assay.
At 3 DIVs, neurons were loaded with 2.5 μM of the Ca^2+-sensitive day Fluo4-AM (Invitrogen) in extracellular solution (145 mM NaCl, 5 mM KCl, 10 mM HEPES, 5.55 mM glucose, 1 mM MgCl2, and 2 mM CaCl2, pH 7.4). After 15 min, cells were washed twice with extracellular solutions and treated with bumetanide (as a positive control), DMSO (as a negative control), or each of our compounds at 10 μM or 100 μM, in extracellular solution for 15 min. Plates were then loaded onto a Spark (Tecan) multiplate reader equipped with an automatic liquid injector system, and Fluo4 fluorescence was recorded with excitation at 485 nm and emission at 535 nm. For each well, fluorescence was first recorded for 20 s of the baseline and for 20 s after delivery of GABA (100 μM). To evaluate neuronal viability, fluorescence was recorded for an additional 20 s after delivery of a depolarizing KCl stimulus (90 mM final concentration in wells). To represent the fluorescent traces in time, we normalized the fluorescence value for each time point to the average of the fluorescence value for the first 20 s of the baseline (ΔF/F0). To quantify the average effects as represented by the bar plots, we measured the maximum peak increase in ΔF/F0 fluorescence upon GABA application normalized over the maximum peak increase in ΔF/F0 fluorescence upon KCl application. We then presented in the figures all the data as a percentage of the fluorescence increase versus the value of the control DMSO.

[1] = In vitro mouse plasma stability; assay type: in vitro ADME; conditions: mouse plasma at 37 °C; incubated at 5 μM (final DMSO 0.1%); read-out: t1/2 plasma
[2] = In vitro metabolic stability in mouse liver microsomes; conditions: tissue homogenate, pH 7.4
Protocol: 1. Aqueous kinetic solubility. […]
3. In vitro mouse microsomial stability. […]
microsomes (Sekisui Xenotech, LCC), 0.1M Tris-HCl buffer (pH 7.4), and 10% DMSO. The final […]
After pre-incubation, the cofactors (NADPH, G6P, G6PDH, MgCl2 pre-dissolved in 0.1M Tris-HCl) were added to the incubation mixture and the incubation was continued at 37 °C for 1h. At each time point (0, 5, 15, 30, 60 min), 30µL of incubation mixture was diluted with 200 µL cold acetonitile spiked with 200 nM of warfarin as internal standard, followed by centrifugation at 3500 g for 30 min. The supernatant was further diluted with H2O (1:1) for analysis.
An aliquot of 200 µl of the supernatant was removed, and the concentration of the test compound was […]
quantified by LC-MS/MS. The percentage of the test compound remaining at each time point relative […]
to t=0 was calculated. The half-lives (t½) were determined by a one-phase decay equation using a […]
non-linear regression of compound concentration vs time.

[3] = Aqueous kinetic solubility in PBS pH 7.4; assay type: physicochemical; conditions: phosphate buffered saline (PBS); aqueous kinetic solubility from 10 mM DMSO solution in PBS pH 7.4; target concentration 250 μM (final DMSO 2.5%)
Protocol: 1. Aqueous kinetic solubility.
30 µL aliquots of 10 mM DMSO stock solution of the test compound were incubated in Phosphate
Buffered Saline (PBS) at pH 7.4 at 25°C for 24h. After centrifugation the dissolved compound in the
supernatant was quantified by LC-MS/MS.
Aqueous kinetic solubility was determined by UV quantification at
215 nm. […]

Row | SMILES | inhibition at 10 µM (NKCC1) [%] | inhibition at 100 µM (NKCC1; 100 μM) [%] | half-life at 5 μM [1] [h] | half-life at 5 μM [2] [h] | solubility at 24 h [3] [µM] | Inhibition 100 μM Ca2+ influx (%) (NKCC1; 100 μM)
1 | CNS(=O)(=O)c1cc(C(=O)O)ccc1NCCCCCCCC(F)(F)F [Compound 32, 3-(-N,N-Methylsulfamoyl)-4-(8,8,8-trifluorooctylamino)benzoic Acid] | 9.3 ± 1.9 | 40.4 ± 4.8 | > 2 | > 1 | 242 (≈ 95.9 µg/mL) | 
2 | O=C(O)c1ccc(NCCCCCCCC(F)(F)F)c(S(=O)(=O)N2CCCC2)c1 [Compound 33, 3-Pyrrolidin-1-ylsulfonyl-4-(8,8,8-trifluorooctylamino)benzoic Acid] | 31.7 ± 4.1 | 50.9 ± 6.7 | > 2 | > 1 | 66 (≈ 28.8 µg/mL) | 
3 | O=C(O)c1ccc(NCCCCCCCC(F)(F)F)c(S(=O)(=O)N2CCCCC2)c1 [Compound 34, 3-(1-Piperidylsulfonyl)-4-(8,8,8-trifluorooctylamino)benzoic Acid] | 49.2 ± 4.5 |  | > 2 | > 1 | 13 (≈ 5.86 µg/mL) | 
4 | O=C(O)c1ccc(NCCCCCCCC(F)(F)F)c(S(=O)(=O)N2CCOCC2)c1 [Compound 35, 3-Morpholinosulfonyl-4-(8,8,8-trifluorooctylamino)benzoic Acid] | 16.5 ± 2.7 | 67.8 ± 2.8 | > 2 | > 1 | 244 (≈ 110 µg/mL) | 67.7 ± 2.8
5 | O=C(O)c1ccc(NCCCCCCCC(F)(F)F)c(S(=O)(=O)NC2CCCC2)c1 [Compound 36, 3-(-N-Cyclopentylsulfamoyl)-4-(8,8,8-trifluorooctylamino)benzoic Acid] | 45.3 ± 5.3 |  | > 2 | > 1 | 223 (≈ 100 µg/mL) | 
6 | O=C(O)c1ccc(NCCCCCCCC(F)(F)F)c(S(=O)(=O)NC2CCCCC2)c1 [Compound 37, 3-(-N-Cyclohexylsulfamoyl)-4-(8,8,8-trifluorooctylamino)benzoic Acid] | 49.5 ± 4.5 |  | > 2 | > 1 | 9 (≈ 4.18 µg/mL) | 
7 | O=C(O)c1ccc(NCCCCCCCC(F)(F)F)c(S(=O)(=O)NC2CCOCC2)c1 [Compound 38, 3-(N-(Tetrahydro-2H-pyran-4-yl)sulfamoyl)-4-((8,8,8-trifluorooctyl)amino)benzoic Acid] | 7.1 ± 2.2 | 36.2 ± 3.4 | > 2 | > 1 | 244 (≈ 114 µg/mL) | 
8 | CN(C)S(=O)(=O)c1cc(C(=O)O)c(Cl)cc1NCCCCCCCC(F)(F)F [Compound 39, 2-Chloro-5-(N,N-dimethylsulfamoyl)-4-((8,8,8-trifluorooctyl)amino)benzoic Acid] | 19.4 ± 2.8 | 59.6 ± 3.1 | > 2 | > 1 | 241 (≈ 107 µg/mL) | 
9 | COc1cc(NCCCCCCCC(F)(F)F)c(S(=O)(=O)N(C)C)cc1C(=O)O [Compound 41, 5-(N,N-Dimethylsulfamoyl)-2-methoxy-4-((8,8,8-trifluorooctyl)amino)benzoic Acid] | 14.2 ± 2 | 45.7 ± 4.5 | > 2 | > 1 | 188 (≈ 82.8 µg/mL) | 
10 | CCOc1cc(NCCCCCCCC(F)(F)F)c(S(=O)(=O)N(C)C)cc1C(=O)O [Compound 42, 5-(N,N-Dimethylsulfamoyl)-2-ethoxy-4-((8,8,8-trifluorooctyl)amino)benzoic Acid] | 13.4 ± 1.1 | 46.6 ± 3.8 | > 2 | > 1 | 43 (≈ 19.5 µg/mL) | 
11 | CN(C)S(=O)(=O)c1cc(C(=O)O)c(OC2CCCC2)cc1NCCCCCCCC(F)(F)F [Compound 43, 2-(Cyclopentyloxy)-5-(N,N-dimethylsulfamoyl)-4-((8,8,8-trifluorooctyl)amino)benzoic Acid] | 27.4 ± 7 |  | > 2 | 0.55 | 11 (≈ 5.44 µg/mL) | 
